The results in this text go back to US12421254B2, “KRAS modulators and uses thereof” (Quanta Therapeutics, Inc., priority 2023, dated 2025).

The subject of test [1] is phospho-ERK in SW620 (KRAS-G12V) cells. Kind of test: pERK In Cell Western (ICW) assay (Method B), SW620. It counts as cell-based. To be noted: Homo sapiens, SW-620, 3 h, Table 4. Here is the method: pERK ICW is a high throughput screening assay to evaluate the cellular potency of mutant KRAS small molecule inhibitors. KRAS mutant cell lines AGS, GP2D (KRAS-G12D) as well as SW620 (KRAS-G12V) were purchased from ATCC and maintained respectively in RPMI/DMEM/RPMI medium supplemented with 10% fetal bovine serum.
Cells grown in exponential phase were trypsinized, resuspended in fresh media, and viable cells were counted using a cell counter with Trypan Blue (BioRad TC20). Cells were seeded into 384-well plate (Greiner 781091) at density of 5,000 cells/well for AGS and 10,000 cells/well for GP2D/SW620 and allowed to grow overnight in a 37° C. CO2 incubator. The next day, compounds were dispensed into wells with a ½ log, 9-point serial dilution using a Tecan D300e dispenser and incubated for 3 hours in a 37° C. CO2 incubator. Cells were then fixed with paraformaldehyde (Electron Microscopy Sciences, 15710, 4% final concentration) for 30 min, permeabilized with wash buffer (1×PBS+0.1% Triton X-100) for 30 min and blocked with Odyssey blocking buffer (Li—COR 927-70001) for 1 hour, all at room temperature (RT). Phospho-ERK antibody (CST 4370L) was diluted 1:500 in Odyssey T20 (PBS) antibody diluent (Li—COR 927-75001) and incubated with cells overnight at 4° C. The next day, plates were washed 5× with wash buffer, incubated with IRDye 800 CW, Goat anti-Rabbit secondary antibody (Li—COR 926-32211, 1:800) and DRAQ5 (CST 4084L, 1:5,000) diluted in Odyssey T20 (PBS) antibody diluent for 1 hour, washed 5×, and imaged on an Odyssey CLx imaging system.
For data analysis, signal intensities from 800 (phosphor-ERK) and 700 (DRAQ5) channels were extracted, and phospho-ERK signals were normalized to DRAQ5 signals for each well and percent of blank control values were computed. Data were then imported into Graphpad Prism to compute half-maximal inhibitory concentrations (IC50) using a 4-parameter variable slope model. Z-factor for each plate was computed from signals derived from wells treated with either DMSO or 5 μM of control compound. AGS pERK ICW (Method B) IC50 (uM) values of selected compounds are depicted in Table 2 with compounds having a value ≥0.001 uM to 0.01 uM as ++++; ≥0.01 uM to 0.1 uM as +++; ≥0.1 uM to 1 uM as ++; ≥1 uM to 10 uM as + and ≥10 uM as NA.

The target in test [2] is GST-tagged KRAS-G12D (2-169) (Homo sapiens, UniProt P01116, G12D). Put plainly: Nucleotide exchange assay (NEA), SOS-mediated, HTRF, KRAS G12D. It counts as biochemical. The note with it: Table 4; IC50 extracted at 30 min; 20 nM SOScat; read-out: NEA G12D IC50. Put shortly: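 SOS1cat-driven loading of fluorescent GTP-DY-647P1 (150 nM) onto GST-KRAS-G12D (2-169, 0.25 nM) read by time-resolved FRET; SOScat 20 nM, compound preincubated with KRAS 1 h at RT. Signal blanked to no-SOS reactions, normalized to DMSO; IC50 fitted from the 30-min read.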
Sequence of GST-tagged KRAS-G12D (2-169) (P01116 2-169 isoform P01116-2 G12D): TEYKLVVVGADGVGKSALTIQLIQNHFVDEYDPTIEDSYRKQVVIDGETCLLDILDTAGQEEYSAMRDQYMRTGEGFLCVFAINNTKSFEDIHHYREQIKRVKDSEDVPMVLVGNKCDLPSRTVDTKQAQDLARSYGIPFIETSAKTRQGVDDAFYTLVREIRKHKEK
(In general: Time-resolved FRET reads energy transfer from a long-lived donor to a nearby acceptor.)

The target in test [3] is GST-tagged KRAS-G12V (2-169) (Homo sapiens, UniProt P01116, G12V). Put plainly: Nucleotide exchange assay (NEA), SOS-mediated, HTRF, KRAS G12V. It counts as biochemical. To be noted: Table 4; IC50 extracted at 90 min; 80 nM SOS. Put shortly:
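Exchange onto fluorescent GTP-DY-647P1 (150 nM final) catalysed by 80 nM SOS1cat was followed by Tb-anti-GST HTRF at RT for up to 90 min, after 1 h compound pre-incubation with 0.25 nM GST-tagged KRAS-G12V (2-169), pH 7.3. DMSO = 0%, no-SOS blank = 100%; 4-parameter IC50 taken at 90 min.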

By IC50 is commonly meant the concentration that inhibits the measured activity by half.

Sequence of GST-tagged KRAS-G12V (2-169) (P01116 2-169 isoform P01116-2 G12V): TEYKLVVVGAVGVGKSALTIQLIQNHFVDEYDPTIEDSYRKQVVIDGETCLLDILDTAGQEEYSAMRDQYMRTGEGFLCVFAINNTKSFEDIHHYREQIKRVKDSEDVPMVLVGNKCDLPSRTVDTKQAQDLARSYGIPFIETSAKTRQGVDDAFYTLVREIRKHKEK

Take `CC(CC#N)N(C)c1nc(OC[C@@]23CCCN2C[C@H](F)C3)nc(N2CC3(C2)SCc2sc(N)c(C#N)c23)n1` (stereo partly drawn) [Compound 249, 2-amino-1′-[4-[(2-cyano-1-methyl-ethyl)-methyl-amino]-6-[[(2R,8S)-2-fluoro-1,2,3,5,6,7-hexahydropyrrolizin-8-yl]methoxy]-1,3,5-triazin-2-yl]spiro[6H-thieno[2,3-c]thiophene-4,3′-azetidine]-3-carbonitrile]: the IC50 is 1000 to 20000 nM in test [1], < 10 nM in test [2] and < 10 nM in test [3].

Turning to `N#Cc1c(N)sc2c1C1(CN(c3nc(OC[C@@]45CCCN4C[C@H](F)C5)nc(N(CCO)C4(C#N)CC4)n3)C1)SC2` (racemic) [Compound 240, 2-amino-1′-[4-[(1-cyanocyclopropyl)-(2-hydroxyethyl)amino]-6-[[rac-(2R,8S)-2-fluoro-1,2,3,5,6,7-hexahydropyrrolizin-8-yl]methoxy]-1,3,5-triazin-2-yl]spiro[6H-thieno[3,4-b]thiophene-4,3′-azetidine]-3-carbonitrile], the IC50 was 10 to 100 nM in test [1], < 10 nM in test [2] and < 10 nM in test [3].

As to `C[C@H](c1cccnc1N)N(CC#N)c1nc(OC[C@@]23CCCN2C[C@H](F)C3)nc(N2CC3(C2)SCc2sc(N)c(C#N)c23)n1` [Compound 246, 2′-amino-1-(4-(((R)-1-(2-aminopyridin-3-yl)ethyl)(cyanomethyl)amino)-6-(((2R,7aS)-2-fluorotetrahydro-TH-pyrrolizin-7a(5H)-yl)methoxy)-1,3,5-triazin-2-yl)-6′H-spiro[azetidine-3,4′-thieno[3,4-b]thiophene]-3′-carbonitrile], the IC50 in test [1], in test [2] and in test [3] was < 10 nM each time.

Take `N#CCN(Cc1c[nH]nn1)c1nc(OC[C@@]23CCCN2C[C@H](F)C3)nc(N2CC3(C2)SCc2sc(N)c(C#N)c23)n1` [Compound 245, 2-amino-1′-[4-[cyanomethyl(1H-triazol-4-ylmethyl)amino]-6-[[(2R,8S)-2-fluoro-1,2,3,5,6,7-hexahydropyrrolizin-8-yl]methoxy]-1,3,5-triazin-2-yl]spiro[6H-thieno[3,4-b]thiophene-4,3′-azetidine]-3-carbonitrile]: the IC50 is 1000 to 20000 nM in test [1], < 10 nM in test [2] and < 10 nM in test [3].

`N#Cc1c(N)sc2c1C1(CN(c3nc(OC[C@@]45CCCN4C[C@H](F)C5)nc(N4CC(O)NC(=O)C45CC5)n3)C1)SC2` (stereo partly drawn) [Compound 255, 2-amino-1′-[4-[[(2R,8S)-2-fluoro-1,2,3,5,6,7-hexahydropyrrolizin-8-yl]methoxy]-6-(6-hydroxy-8-oxo-4,7-diazaspiro[2.5]octan-4-yl)-1,3,5-triazin-2-yl]spiro[6H-thieno[3,4-b]thiophene-4,3′-azetidine]-3-carbonitrile]: the IC50 is 1000 to 20000 nM in test [1], < 10 nM in test [2] and < 10 nM in test [3].

In turn, `N#Cc1c(N)sc2c1C1(CN(c3nc(OC[C@@]45CCCN4C[C@H](F)C5)nc(N(CC(=O)O)C4(C#N)CC4)n3)C1)SC2` [Compound 259, 2-[[4-(2-amino-3-cyano-spiro[6H-thieno[3,4-b]thiophene-4,3′-azetidine]-1′-yl)-6-[[(2R,8S)-2-fluoro-1,2,3,5,6,7-hexahydropyrrolizin-8-yl]methoxy]-1,3,5-triazin-2-yl]-(1-cyanocyclopropyl)amino]acetic acid] had an IC50 in test [1] of 1000 to 20000 nM.

For the compound `N#CCN(CC(F)F)c1nc(OC[C@@]23CCCN2C[C@H](F)C3)nc(N2CC3(C2)SCc2sc(N)c(C#N)c23)n1` [Compound 242, 2-amino-1′-[4-[cyanomethyl(2,2-difluoroethyl)amino]-6-[[(2R,8S)-2-fluoro-1,2,3,5,6,7-hexahydropyrrolizin-8-yl]methoxy]-1,3,5-triazin-2-yl]spiro[6H-thieno[3,4-b]thiophene-4,3′-azetidine]-3-carbonitrile], the IC50 was 10 to 100 nM in test [1], < 10 nM in test [2] and < 10 nM in test [3].

Regarding `CCN(c1nc(OC[C@@]23CCCN2C[C@H](F)C3)nc(N2CC3(C2)SCc2sc(N)c(C#N)c23)n1)[C@H](C)C#N` [Compound 236, 2-amino-1′-[4-[[(1R)-1-cyanoethyl]-ethyl-amino]-6-[[(2R,8S)-2-fluoro-1,2,3,5,6,7-hexahydropyrrolizin-8-yl]methoxy]-1,3,5-triazin-2-yl]spiro[6H-thieno[3,4-b]thiophene-4,3′-azetidine]-3-carbonitrile; formic acid], the IC50 in test [1] was 10 to 100 nM; in test [2], < 10 nM; in test [3] it was < 10 nM.

Take `CCN(c1nc(OC[C@@]23CCCN2C[C@H](F)C3)nc(N2CC3(C2)SCc2sc(N)c(C#N)c23)n1)C(C)CC#N` (stereo partly drawn) [Compound 254, 2-amino-1′-[4-[(2-cyano-1-methyl-ethyl)-ethyl-amino]-6-[[(2R,8S)-2-fluoro-1,2,3,5,6,7-hexahydropyrrolizin-8-yl]methoxy]-1,3,5-triazin-2-yl]spiro[6H-thieno[3,4-b]thiophene-4,3′-azetidine]-3-carbonitrile; formic acid]: the IC50 in test [1] is 100 to 1000 nM; in test [2] it was < 10 nM; in test [3] it was < 10 nM.

Consider `N#Cc1c(N)sc2c1C1(CC2)CN(c2nc(N[C@@H]3COC[C@@H]3O)nc(OC[C@@]34CCCN3C[C@H](F)C4)n2)C1` (racemic) [Compound 103, 2-amino-1′-[4-[[(2R,8S)-2-fluoro-1,2,3,5,6,7-hexahydropyrrolizin-8-yl]methoxy]-6-[[rac-(3R,4R)-4-hydroxytetrahydrofuran-3-yl]amino]-1,3,5-triazin-2-yl]spiro[5,6-dihydrocyclopenta[b]thiophene-4,3′-azetidine]-3-carbonitrile], for which the IC50 was in the range of 1000 to 20000 nM in test [2] and 100 to 1000 nM in test [3].

For `N#Cc1c(N)sc2c1C1(CN(c3nc(OCC45CCCN4CC(F)C5)nc(N4C5CCC4C(O)C5)n3)C1)SC2` (mixture of isomers) [Compound 282, 2-amino-1′-[4-[[(2R,8S)-2-fluoro-1,2,3,5,6,7-hexahydropyrrolizin-8-yl]methoxy]-6-[(1RS,2SR,4SR)-2-hydroxy-7-azabicyclo[2.2.1]heptan-7-yl]-1,3,5-triazin-2-yl]spiro[6H-thieno[3,4-b]thiophene-4,3′-azetidine]-3-carbonitrile], the half-inhibitory concentration (IC50) lay in the range of 100 to 1000 nM in test [2] and 10 to 100 nM in test [3].

Take `CN(C)CC1(COc2nc(N3CCOCC(C)(O)C3)nc(N3CC4(C3)SCc3sc(N)c(C#N)c34)n2)CC1(F)F` (stereo not drawn) [Compound 281, 2-amino-1′-[4-[[1-[(dimethylamino)methyl]-2,2-difluoro-cyclopropyl]methoxy]-6-(6-hydroxy-6-methyl-1,4-oxazepan-4-yl)-1,3,5-triazin-2-yl]spiro[6H-thieno[3,4-b]thiophene-4,3′-azetidine]-3-carbonitrile]: the IC50 in test [2] and in test [3] was < 10 nM throughout.

`C[C@@]1(O)CCCN(c2nc(OC[C@@]34CCCN3C[C@H](F)C4)nc(N3CCC4(CCCc5sc(N)c(C#N)c54)C3)n2)C1` (stereo partly drawn) [Compound 60, 2-amino-1′-[4-[[(2R,8S)-2-fluoro-1,2,3,5,6,7-hexahydropyrrolizin-8-yl]methoxy]-6-[(3R)-3-hydroxy-3-methyl-1-piperidyl]-1,3,5-triazin-2-yl]spiro[6,7-dihydro-5H-benzothiophene-4,3′-pyrrolidine]-3-carbonitrile]: the IC50 in test [2] and in test [3] was 1000 to 20000 nM each time.
